According to patent EP4725957A1, “GROUP OF CYCLIC ALKALINE LIPOPEPTIDE COMPOUNDS, AND PREPARATION METHOD THEREFOR AND USE THEREOF” (Institute of Medicinal Biotechnology, Chinese Academy of …, priority 2023, dated 2024):
≈ marks a conversion by molar mass, not a printed value. Numbered stars: 1 amine (or outer) side, 2 acyl side, 3 side chain; on linkers, the order of the positions; unused ones are H or OH. Bridge positions count the residues as written; N and C are the ends. Square brackets hold non-standard residues; d marks the D form. Peptide text beside a SMILES is read from it. * marks the point of attachment. X3 = O=C([C@@H](Cc1ccc(CS(=O)(=O)O)cc1)N[*:1])[*:2]; Heptanoyl(6-Me) = CC(C)CCCCC(=O)*; Nonanoyl = CCCCCCCCC(=O)*; X1 = CC[C@H](C)CCCCC(=O)*; dDab = NCC[C@@H](N)C(=O)O; Heptanoyl = CCCCCCC(=O)*; Octanoyl = CCCCCCCC(=O)*; Orn = NCCC[C@H](N)C(=O)O; Dab = NCC[C@H](N)C(=O)O; Dap = NC[C@H](N)C(=O)O

Columns and labels:
Assay type in all cases: cell-based
[1] = Nephrotoxicity assay: in vitro cytotoxicity of HK-2 cells by CCK-8 assay; settings: human, HK-2 cells (human renal), 72 h incubation with drug-containing medium
Procedure, shortened: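 HK-2 human renal cells in RPMI-1640 with 10% FBS were exposed to compounds at final 12.5–500 µg/mL for 72 h, then CCK-8 for 3 h and OD450 read. Viability was normalised to drug-free wells; IC50 came from logarithmic regression over three repeats, with polymyxin B as positive drug.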

[2] = system: Pseudomonas aeruginosa ATCC 27853; settings: ATCC 27853
Procedure, shortened: (§1)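 Colonies from 18-24 h plates were suspended to 0.5 McFarland and diluted in MH broth. Two-fold compound dilutions were then mixed 1:1 with inoculum to reach 64 to 0.03 mg/L and (2-4) × 10^5 CFU/mL. Plates were sealed and incubated at 35-37°C for 16-20 h, after which the MIC was read.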

[3] = system: Klebsiella pneumoniae ATCC BAA-1705 (KPC); settings: ATCC BAA-1705
Procedure, shortened: as §1

[4] = system: Acinetobacter baumannii NCTC 13304 (OXA-27); settings: NCTC 13304
Procedure, shortened: as §1

[5] = system: Pseudomonas aeruginosa PAE19-3; settings: PAE19-3
Procedure, shortened: as §1

[6] = system: Acinetobacter baumannii ABA19-1; settings: ABA19-1
Procedure, shortened: as §1

[7] = system: Klebsiella pneumoniae KPN+19-15; settings: KPN+19-15
Procedure, shortened: as §1

[8] = system: Escherichia coli ATCC BAA-2523; settings: ATCC BAA-2523
Procedure, shortened: as §1

[9] = system: Escherichia coli ATCC BAA-2340 (KPC); settings: ATCC BAA-2340
Procedure, shortened: as §1

CCCCCCC(=O)N[C@@H](CCN)C(=O)N[C@H](C(=O)N[C@@H](CCCN)C(=O)N[C@H]1CCNC(=O)[C@H]([C@@H](C)O)NC(=O)[C@H](CCN)NC(=O)[C@H](CCN)NC(=O)[C@H](CC(C)C)NC(=O)[C@@H](Cc2ccccc2)NC(=O)[C@H](CCN)NC1=O)[C@@H](C)O [Compound 49, Heptanoyl-Dab-Thr-Orn-ring(4-10)[Dab-Dab-D-Phe-Leu-Dab-Dab-Thr]] (Heptanoyl-[Dab]T[Orn][Dab][Dab][dF]L[Dab][Dab]T; lactam 4-C)
IC50 at 72 h [1]: 367 ± 8.7 µg/mL (≈ 309 µM)
MIC [2]: 0.03 µg/mL (≈ 0.0252 µM)
MIC [3]: 0.03 µg/mL (≈ 0.0252 µM)
MIC [4]: 0.06 µg/mL (≈ 0.0504 µM)
MIC [5]: 0.5 µg/mL (≈ 0.42 µM)
MIC [6]: 0.125 µg/mL (≈ 0.105 µM)
MIC [7]: 0.03 µg/mL (≈ 0.0252 µM)
MIC [8]: 0.03 µg/mL (≈ 0.0252 µM)
MIC [9]: 0.03 µg/mL (≈ 0.0252 µM)

CC(C)CCCCC(=O)N[C@@H](CCN)C(=O)N[C@H](C(=O)N[C@@H](CN)C(=O)N[C@H]1CCNC(=O)[C@H]([C@@H](C)O)NC(=O)[C@H](CCN)NC(=O)[C@H](CCN)NC(=O)[C@H]([C@@H](C)O)NC(=O)[C@@H](Cc2ccc(CS(=O)(=O)O)cc2)NC(=O)[C@H](CCN)NC1=O)[C@@H](C)O [Compound 116, 6-methylheptanoyl-Dab-Thr-Dap-ring(4-10)[Dab-Dab-D-Phe(4-CH2SO3H)-Thr-Dab-Dab-Thr]] ({Heptanoyl(6-Me)}-[Dab]T[Dap][Dab][Dab][X3]T[Dab][Dab]T; lactam 4-C)
IC50 at 72 h [1]: > 500 µg/mL
MIC [2]: 0.25 µg/mL (≈ 0.199 µM)
MIC [3]: 0.125 µg/mL (≈ 0.0994 µM)
MIC [4]: 0.06 µg/mL (≈ 0.0477 µM)
MIC [5]: 0.25 µg/mL (≈ 0.199 µM)
MIC [6]: 0.06 µg/mL (≈ 0.0477 µM)
MIC [7]: 0.125 µg/mL (≈ 0.0994 µM)
MIC [8]: 0.03 µg/mL (≈ 0.0239 µM)
MIC [9]: 0.03 µg/mL (≈ 0.0239 µM)

CCCCCCCC(=O)N[C@@H](CCN)C(=O)N[C@H](C(=O)N[C@@H](CCCN)C(=O)N[C@H]1CCNC(=O)[C@H]([C@@H](C)O)NC(=O)[C@H](CCN)NC(=O)[C@H](CCN)NC(=O)[C@H](CC(C)C)NC(=O)[C@@H](Cc2ccccc2)NC(=O)[C@H](CCN)NC1=O)[C@@H](C)O [Compound 48, Octanoyl-Dab-Thr-Orn-ring(4-10)[Dab-Dab-D-Phe-Leu-Dab-Dab-Thr]] (Octanoyl-[Dab]T[Orn][Dab][Dab][dF]L[Dab][Dab]T; lactam 4-C)
IC50 at 72 h [1]: 239 ± 7.4 µg/mL (≈ 199 µM)
MIC [2]: ≤0.03 µg/mL
MIC [3]: ≤0.03 µg/mL
MIC [4]: 0.06 µg/mL (≈ 0.0499 µM)
MIC [5]: 0.25 µg/mL (≈ 0.208 µM)
MIC [6]: 0.125 µg/mL (≈ 0.104 µM)
MIC [7]: ≤0.03 µg/mL
MIC [8]: 0.03 µg/mL (≈ 0.0249 µM)
MIC [9]: 0.03 µg/mL (≈ 0.0249 µM)

CCCCCCC(=O)N[C@@H](CCN)C(=O)N[C@H](C(=O)N[C@H](CO)C(=O)N[C@H]1CCNC(=O)[C@H]([C@@H](C)O)NC(=O)[C@H](CN)NC(=O)[C@H](CCN)NC(=O)[C@H]([C@@H](C)O)NC(=O)[C@@H](Cc2ccccc2)NC(=O)[C@H](CCN)NC1=O)[C@@H](C)O [Compound 84, Heptanoyl-Dab-Thr-D-Ser-ring(4-10)[Dab-Dab-D-Phe-Thr-Dab-Dap-Thr]] (Heptanoyl-[Dab]T[dS][Dab][Dab][dF]T[Dab][Dap]T; lactam 4-C)
IC50 at 72 h [1]: > 500 µg/mL
MIC [2]: >64 µg/mL
MIC [3]: 0.25 µg/mL (≈ 0.22 µM)
MIC [4]: 0.03 µg/mL (≈ 0.0264 µM)
MIC [5]: 64 µg/mL (≈ 56.3 µM)
MIC [6]: 0.06 µg/mL (≈ 0.0528 µM)
MIC [7]: 0.5 µg/mL (≈ 0.44 µM)
MIC [8]: 0.25 µg/mL (≈ 0.22 µM)
MIC [9]: 0.25 µg/mL (≈ 0.22 µM)

CC[C@H](C)CCCCC(=O)N[C@@H](CCN)C(=O)N[C@H](C(=O)N[C@@H](CCN)C(=O)N[C@H]1CCNC(=O)[C@H]([C@@H](C)O)NC(=O)[C@H](CCN)NC(=O)[C@H](CCN)NC(=O)[C@H]([C@@H](C)O)NC(=O)[C@@H](Cc2ccccc2)NC(=O)[C@H](CCN)NC1=O)[C@@H](C)O [Compound 16, (S)-6-methyloctanoyl-Dab-Thr-Dab-ring(4-10)[Dab-Dab-D-Phe-Thr-Dab-Dab-Thr]] (X1-[Dab]T[Dab][Dab][Dab][dF]T[Dab][Dab]T; lactam 4-C)
IC50 at 72 h [1]: > 500 µg/mL
MIC [2]: 0.5 µg/mL (≈ 0.42 µM)
MIC [3]: ≤0.03 µg/mL
MIC [4]: ≤0.03 µg/mL
MIC [5]: 0.5 µg/mL (≈ 0.42 µM)
MIC [6]: ≤0.03 µg/mL
MIC [7]: ≤0.03 µg/mL
MIC [8]: ≤0.03 µg/mL
MIC [9]: ≤0.03 µg/mL

CC(C)CCCCC(=O)N[C@@H](CCN)C(=O)N[C@H](C(=O)N[C@@H](CN)C(=O)N[C@H]1CCNC(=O)[C@H]([C@@H](C)O)NC(=O)[C@H](CCN)NC(=O)[C@H](CCN)NC(=O)[C@H](CC(C)C)NC(=O)[C@@H](Cc2ccccc2)NC(=O)[C@H](CCN)NC1=O)[C@@H](C)O [Compound 37, 6-methylheptanoyl-Dab-Thr-Dap-ring(4-10)[Dab-Dab-D-Phe-Leu-Dab-Dab-Thr]] ({Heptanoyl(6-Me)}-[Dab]T[Dap][Dab][Dab][dF]L[Dab][Dab]T; lactam 4-C)
IC50 at 72 h [1]: 318 ± 10.2 µg/mL (≈ 270 µM)
MIC [2]: 0.03 µg/mL (≈ 0.0255 µM)
MIC [3]: 0.03 µg/mL (≈ 0.0255 µM)
MIC [4]: 0.03 µg/mL (≈ 0.0255 µM)
MIC [5]: 0.25 µg/mL (≈ 0.213 µM)
MIC [6]: 0.03 µg/mL (≈ 0.0255 µM)
MIC [7]: 0.03 µg/mL (≈ 0.0255 µM)
MIC [8]: 0.03 µg/mL (≈ 0.0255 µM)
MIC [9]: 0.03 µg/mL (≈ 0.0255 µM)

CCCCCCCCC(=O)N[C@@H](CCN)C(=O)N[C@H](C(=O)N[C@@H](CCCN)C(=O)N[C@H]1CCNC(=O)[C@H]([C@@H](C)O)NC(=O)[C@H](CCN)NC(=O)[C@H](CCN)NC(=O)[C@H](CC(C)C)NC(=O)[C@@H](Cc2ccccc2)NC(=O)[C@H](CCN)NC1=O)[C@@H](C)O [Compound 50, Nonanoyl-Dab-Thr-Orn-ring(4-10)[Dab-Dab-D-Phe-Leu-Dab-Dab-Thr]] (Nonanoyl-[Dab]T[Orn][Dab][Dab][dF]L[Dab][Dab]T; lactam 4-C)
IC50 at 72 h [1]: 150 ± 5.2 µg/mL (≈ 123 µM)
MIC [2]: 0.03 µg/mL (≈ 0.0246 µM)
MIC [3]: 0.03 µg/mL (≈ 0.0246 µM)
MIC [4]: 0.06 µg/mL (≈ 0.0493 µM)
MIC [5]: 0.5 µg/mL (≈ 0.411 µM)
MIC [6]: 0.125 µg/mL (≈ 0.103 µM)
MIC [7]: 0.03 µg/mL (≈ 0.0246 µM)
MIC [8]: 0.06 µg/mL (≈ 0.0493 µM)
MIC [9]: 0.06 µg/mL (≈ 0.0493 µM)

CCCCCCCCC(=O)N[C@@H](CN)C(=O)N[C@H](C(=O)N[C@H](CCN)C(=O)N[C@H]1CCNC(=O)[C@H]([C@@H](C)O)NC(=O)[C@H](CCN)NC(=O)[C@H](CCN)NC(=O)[C@H](CC(C)C)NC(=O)[C@@H](CC(C)C)NC(=O)[C@H](CCN)NC1=O)[C@@H](C)O [Compound 100, Nonanoyl-Dap-Thr-D-Dab-ring(4-10)[Dab-Dab-D-Leu-Leu-Dab-Dab-Thr]] (Nonanoyl-[Dap]T[dDab][Dab][Dab][dL]L[Dab][Dab]T; lactam 4-C)
IC50 at 72 h [1]: 117 ± 15.6 µg/mL (≈ 101 µM)
MIC [2]: 1 µg/mL (≈ 0.865 µM)
MIC [3]: 0.06 µg/mL (≈ 0.0519 µM)
MIC [4]: 0.06 µg/mL (≈ 0.0519 µM)
MIC [5]: 1 µg/mL (≈ 0.865 µM)
MIC [6]: 0.06 µg/mL (≈ 0.0519 µM)
MIC [7]: 0.06 µg/mL (≈ 0.0519 µM)
MIC [8]: 0.125 µg/mL (≈ 0.108 µM)
MIC [9]: 0.125 µg/mL (≈ 0.108 µM)

CC(C)CCCCC(=O)N[C@@H](CCN)C(=O)N[C@H](C(=O)N[C@H](CO)C(=O)N[C@H]1CCNC(=O)[C@H]([C@@H](C)O)NC(=O)[C@H](CCN)NC(=O)[C@H](CCN)NC(=O)[C@H]([C@@H](C)O)NC(=O)[C@@H](Cc2ccccc2)NC(=O)[C@H](CN)NC1=O)[C@@H](C)O [Compound 62, 6-methylheptanoyl-Dab-Thr-D-Ser-ring(4-10)[Dab-Dap-D-Phe-Thr-Dab-Dab-Thr]] ({Heptanoyl(6-Me)}-[Dab]T[dS][Dab][Dap][dF]T[Dab][Dab]T; lactam 4-C)
IC50 at 72 h [1]: > 500 µg/mL
MIC [2]: 64 µg/mL (≈ 55.6 µM)
MIC [3]: 0.25 µg/mL (≈ 0.217 µM)
MIC [4]: 0.25 µg/mL (≈ 0.217 µM)
MIC [5]: 4 µg/mL (≈ 3.48 µM)
MIC [6]: 0.25 µg/mL (≈ 0.217 µM)
MIC [7]: 0.5 µg/mL (≈ 0.435 µM)
MIC [8]: 0.06 µg/mL (≈ 0.0522 µM)
MIC [9]: 0.06 µg/mL (≈ 0.0522 µM)
